{"source": "ChEMBL document CHEMBL1132443", "about": "“Antimalarial, antiproliferative, and antitumor activities of artemisinin-derived, chemically robust, trioxane dimers” (J Med Chem, 1999)", "data": [{"system": "Plasmodium falciparum", "experiment": "In vitro antimalarial activity against chloroquine-sensitive Plasmodium falciparum NF54", "type": "functional, organism-based", "units": {"IC50": "nM"}, "values": [{"smiles": "C[C@H]1[C@@H](C#Cc2cccc(C#C[C@H]3O[C@@H]4O[C@]5(C)CC[C@H]6[C@H](C)CC[C@@H]([C@H]3C)[C@@]46OO5)c2)O[C@@H]2O[C@]3(C)CC[C@H]4[C@H](C)CC[C@@H]1[C@@]24OO3", "IC50": 36}, {"smiles": "C[C@H]1[C@@H](CC(=O)c2ccc(C(=O)C[C@H]3O[C@@H]4O[C@]5(C)CC[C@H]6[C@H](C)CC[C@@H]([C@H]3C)[C@@]46OO5)cc2)O[C@@H]2O[C@]3(C)CC[C@H]4[C@H](C)CC[C@@H]1[C@@]24OO3", "IC50": 1.9}, {"smiles": "C[C@H]1[C@@H](CC(=O)c2cccc(C(=O)C[C@H]3O[C@@H]4C[C@]5(C)CC[C@H]6[C@H](C)CC[C@@H]([C@H]3C)[C@@]46OO5)c2)O[C@@H]2C[C@]3(C)CC[C@H]4[C@H](C)CC[C@@H]1[C@@]24OO3", "IC50": 1.9}, {"smiles": "C[C@H]1[C@H](c2ccc([C@@H]3O[C@@H]4O[C@]5(C)CC[C@H]6[C@H](C)CC[C@@H]([C@H]3C)[C@@]46OO5)o2)O[C@@H]2O[C@]3(C)CC[C@H]4[C@H](C)CC[C@@H]1[C@@]24OO3", "IC50": 3.2}, {"smiles": "C[C@H]1[C@@H](C#Cc2ccc(C#C[C@H]3O[C@@H]4O[C@]5(C)CC[C@H]6[C@H](C)CC[C@@H]([C@H]3C)[C@@]46OO5)cc2)O[C@@H]2O[C@]3(C)CC[C@H]4[C@H](C)CC[C@@H]1[C@@]24OO3", "IC50": 30}, {"smiles": "COc1cc(OC)c([C@@H]2O[C@@H]3O[C@]4(C)CC[C@H]5[C@H](C)CC[C@@H]([C@H]2C)[C@@]35OO4)cc1[C@@H]1O[C@@H]2O[C@]3(C)CC[C@H]4[C@H](C)CC[C@@H]([C@H]1C)[C@@]24OO3", "IC50": 1.3}, {"smiles": "C[C@@H]1CC[C@H]2[C@@H](C)C(=O)O[C@@H]3O[C@@]4(C)CC[C@@H]1[C@]32OO4", "note": "[ARTEMISININ]", "IC50": 9.7}]}]}
